We go through seven molecules from patent US10092500B2, “Oral care compositions” (BASF SE, priority 2014, dated 2018).

The test system of experiment [1] is Multispecies saliva derived Biofilm. Kind of experiment: Substantivity: multispecies saliva derived biofilm growth on pre-treated, rinsed hydroxyapatite surfaces. The class given is cell-based, human saliva. Particulars: 24 hr on pre-treated hydroxyapatite. Here is the method: The peg lids are transferred to a clear 96 well plate containing 200 μl of the designated treatments below in Jordan's with 5% sucrose. This peg/plate assembly is shaken for 5 mins and then incubated for 25 mins aerobically at 37 C. After 30 mins of treatment the two pegs is transferred to a 96 well plate containing 200 μl of water and it is rinsed for 10 min at 500 rpm. […] After incubation the peg lids are transferred to a rinse plate containing 200 μl of water for 5 minutes and then transferred to white 96 well plate containing 200 μl Bac-titer-Glo, this is shaken for 5 minutes and read for luminescence.

In another experiment the test system is S. mutans (ATCC#25175). Kind of experiment: Inhibition of bacterial acid production (Bromo Cresol Purple broth, OD 588/427). The class given is cell-based. Conditions: for Inhibition of bacterial acid production, in words: change of OD 588 / OD 427 (pH indicator). The procedure:
Method to observe the acid production of S. mutans in a medium containing a pH indicator and glucose. Observe how xylitol and the example polymers affect acid production: A culture of S. mutans (ATCC#25175) is grown statically overnight in 10 mL liquid broth (BHI) at 37° C. […] The no treatment control has 20 μl water added. To each experimental well 180 of the inoculated BCP broth is added. To the no inoculum control 20 μl water and 20 μl filter sterilized overnight culture broth are added. […] Both wavelengths are measured every hour for several hours but before evaporation became an issue. The plates are shaken for 10 seconds before reading.

For experiment [2], the system named is Streptococcus mutans Biofilm. Kind of experiment: Substantivity: S. mutans biofilm growth on pre-treated, rinsed hydroxyapatite surfaces. Conditions: 24 hr on pre-treated hydroxyapatite. The class given is cell-based, S. mutans (ATCC#25175). The procedure: Method to evaluate the substantivity of polymers to hydroxy apatite surfaces and the effects these polymers have on the growth of Streptococcus mutans and Saliva derived biofilms: S. mutans (ATCC#25175) is inoculated into 10 mL BHI and incubated statically at 37° C. overnight. […] Hydroxy apatite coated peg lids are pellicle treated with sterile artificial saliva 200 μl/per well of a 96 well clear plate for 30 minutes at 37° C. aerobically. The peg lids are transferred to a clear 96 well plate containing 200 μl of the designated treatments below in Jordan's with 5% sucrose. […] After 30 mins of treatment the two pegs is transferred to a 96 well plate containing 200 μl of water and it is rinsed for 10 min at 500 rpm. […] After incubation the peg lids are transferred to a rinse plate containing 200 μl of water for 5 minutes and then transferred to white 96 well plate containing 200 μl Bac-titer-Glo, this is shaken for 5 minutes and read for luminescence.

The subject of a further experiment is 48 hour saliva biofilms. Kind of experiment: Disruption of established 48 hour saliva biofilms. The class given is cell-based, pooled human saliva. Conditions: treatment for 5 minutes; Active = 1000 ppm e-polylysine, Chelate = 0.1% Trilon Ca, Polymer = 1%; negative = increase over control. The procedure:
Method to screen combinations of actives, example polymers and chelates to identify potential synergies for biofilm disruption: Polystyrene pegs are pellicle treated with fresh pooled human saliva for 30 minutes at 37° C. aerobically. […] The pegs are added to the growth media and incubated anaerobically 37° C. At 24 hr. the pegs are removed and transferred to a fresh plate containing 200 μl of sterile BHI. And incubated anaerobically for another 24 hr at 37° C. […] Following a 5 minute rinse at room temperature, the pegs are transferred to a treatment plate containing combinations of actives, chelate and polymers. This is followed a 5 minute treatment (shaking at 500 rpm). The treated pegs are transferred to a white 96 well plate containing 200 μl Bac-titer-Glo reagent—this is incubated at room temperature for 5 minutes (shaking) and read on a plate reader for luminescence.

Experiment [3] has as its system Streptococcus mutans biofilm. The experiment can be described thus: Prevention of S. mutans biofilm development on hydroxy apatite pegs (Bac-titer-Glo luminescence). In kind it is cell-based. Conditions: Controls column; 2% xylitol; 24 hr growth; negative = increase over control. Here is the method:
To evaluate the multispecies saliva and S. mutans biofilm preventing activity of polymers and control combinations of condensants S. mutans 25175 is inoculated into 10 mL BHI and incubated statically at 37° C. overnight. […] Hydroxy apatite coated peg lids are pellicle treated with sterile artificial saliva 200 μl/per well of a 96 well clear plate for 30 minutes at 37° C. aerobic. […] Test solutions are added to a desired final concentration and water is added to bring the final volume to 200 μl.

Experiment [4] deals with multispecies saliva biofilm. The experiment can be described thus: Prevention of multispecies saliva biofilm development on hydroxy apatite pegs (Bac-titer-Glo luminescence). The class given is cell-based, pooled human saliva. Conditions: Controls column; 2% xylitol; 24 hr growth. Here is the method:
To evaluate the multispecies saliva and S. mutans biofilm preventing activity of polymers and control combinations of condensants Hydroxy apatite (HA) coated surfaces of a 96 peg lid (Biosurface Technologies, Bozeman, Mont.) are pellicle treated with pooled human saliva 200 μl/per well of a 96 well clear plate for 30 minutes at 37° C. aerobically. Into each well of the growth plate, clear 96 well plate, 160 μl inoculated Brain Heart Infusion (BHI) broth is added. Test solutions are added to a desired final concentration and water is added to bring the final volume to 200 μl.

The structures appear in SMILES notation.

Turning to `N=C(N)NCCC[C@H](N)C(=O)O` [Arginine, L-arginine], the “% decrease in biofilm as compared to growth control (negative indicates increased biofilm)” value in experiment [1] (% treatment 0.070%) is listed as −28%; in experiment [1] (% treatment 0.140%), −20%; in experiment [1] (% treatment 0.280%), −24%; in experiment [1] (% treatment 0.560%), −22%; in experiment [1] (% treatment 1.120%) it was 49%; in experiment [2] (% treatment 0.070%) it was −40%. Further, the “% decrease in biofilm as compared to growth control (negative indicates increased biofilm)” value in experiment [2] (% treatment 0.140%) is −18%; in experiment [2] (% treatment 0.280%), −59%; in experiment [2] (% treatment 0.560%) it was −53%; in experiment [2] (% treatment 1.120%), −29%. In the experiment on S. mutans (ATCC#25175) (1% treatment, pH 6.3), the “Mean Delta OD588 (stdev)” value is listed as 1.054 (0.13). In the experiment with S. mutans (ATCC#25175), the “Inhibition of bacterial acid production, in words” value (from here on “Inhibition”) is given as “no acid inhibiting effects”.
Turning to `CCCCCCCCCCCCCCCC[n+]1ccccc1` [Cetylpyridinium chloride], the “% decrease in biofilm as compared to growth control (negative indicates increased biofilm)” value in experiment [1] (% treatment 0.070%) came to 98%; in experiment [2] (% treatment 0.070%), 100%.
With `O=C(O)CN(CCN(CC(=O)O)CC(=O)O)CC(=O)O` [EDTA, ethylenediaminetetraacetic acid], in the experiment with S. mutans (ATCC#25175) (1% treatment, pH 7.0), the “Mean Delta OD588 (stdev)” value is recorded as 0.283 (0.086). Moreover, the “Inhibition” value in the experiment with S. mutans (ATCC#25175) is given as “no or little change demonstrating acid inhibiting effects”.
Consider `O=C([O-])CN(CCN(CC(=O)[O-])CC(=O)[O-])CC(=O)[O-].[Ca+2].[Na+].[Na+]` [Trilon Ca, Ca EDTA], for which, in the experiment on 48 hour saliva biofilms, the “Disruption of 48 hour saliva biofilms, reduction from the No Treatment control” value is recorded as −10%.
Consider `OC[C@@H](O)[C@H](O)[C@@H](O)CO` [Xylitol, xylitol], for which the “% decrease in biofilm as compared to growth control (negative indicates increased biofilm)” value is given as 14% in experiment [1] (% treatment 1.120%), 12% in experiment [1] (% treatment 2.000%), −11% in experiment [2] (% treatment 1.120%) and −15% in experiment [2] (% treatment 2.000%). In addition, the “Prevention of Streptococcus mutans biofilm development, reduction from the untreated control” value in experiment [3] was −1%. In addition, the “Mean Delta OD588 (stdev)” value with S. mutans (ATCC#25175) (0.1% treatment) is 0.993 (0.099); in the experiment with S. mutans (ATCC#25175) (0.5% treatment), 0.841 (0.119); in the experiment on S. mutans (ATCC#25175) (1% treatment) it was 0.759 (0.081); with S. mutans (ATCC#25175) (2% treatment), 0.734 (0.131). Moreover, in the experiment on S. mutans (ATCC#25175), the “Inhibition” value was “acid inhibition at all concentrations tested”. The “Prevention of multispecies saliva biofilm development, reduction from the untreated control” value in experiment [4] is 17%.
As to `O=C(O)CC(O)(CC(=O)O)C(=O)O` [citric acid], the “Mean Delta OD588 (stdev)” value in the experiment with S. mutans (ATCC#25175) (1% treatment, pH 7.0) is recorded as 0.196 (0.029). Besides, in the experiment with S. mutans (ATCC#25175), the “Inhibition” value is listed as “no or little change demonstrating acid inhibiting effects”.
Take `O=C(O)CCC(=O)O` [succinic acid]: the “Mean Delta OD588 (stdev)” value in the experiment on S. mutans (ATCC#25175) (1% treatment, pH 7.4) is recorded as 0.323 (0.107). Moreover, the “Inhibition” value with S. mutans (ATCC#25175) is given as “no or little change demonstrating acid inhibiting effects”.
